According to patent US20150366890A1, “COMPOSITIONS AND METHODS FOR TREATING FUNGAL INFECTIONS” (TRUSTEES OF BOSTON UNIVERSITY, priority 2013, published 2015):

Tests used:
Type in all cases: cell-based
C. albicans [1] = test: ROS formation by HPF fluorescence (flow cytometry); conditions: wildtype C. albicans, SDC, after 1.5 hours of treatment (CAS 0.5 μg/ml)
Procedure: (§1) The formation of ROS following AF treatment in yeast was measured using the dye 3′-(p-hydroxyphenyl) fluorescein (HPF), which is preferentially oxidized by intracellular hydroxyl radicals into a fluorescent product (Kohanski et al., 2007). Exponentially growing wildtype S. cerevisiae and C. albicans were treated in synthetic dextrose complete (SDC) medium with the minimum concentration of fungicide required to achieve at least a 90% reduction in colony forming units (CFU) after three hours of exposure. As a positive control, cells were also treated with H2O2, a potent inducer of hydroxyl radical formation (Perrone et al., 2008).
(§2) Overnight yeast cultures were diluted into the indicated media and grown to an OD600 of 0.2, at which point the AFs were added. Colony forming units (CFU) were measured by plating six serial dilutions onto YPD agar plates. Cells treated with MCZ were washed before serial dilution to stop growth inhibition associated with high concentrations of MCZ. CFU were counted after three days of incubation on agar plates. When indicated, thiourea (Fluka) was added 30 min prior to the addition of AFs. HPF (10 μM) (Invitrogen) and Mito Tracker (1 μM) (Invitrogen) dyes were added to PBS-washed cells at the indicated time points and incubated for 30 min prior to flow cytometry measurements, which were taken on the FACSCalibur (Becton-Dickinson). All experiments described in this section were conducted in 0.5 ml of SDC in 24-well plates incubated at 900 rpm and 37° C. for C. albicans and 30° C. and 300 rpm for S. cerevisiae. TUNEL assays were conducted as previously described (Ribeiro et al., 2006) and are described in detail in the TUNEL section of the Experimental Procedures.

C. albicans [2] = test: Metabolomic profiling of intracellular metabolites (Metabolon)
Procedure: The results described herein link AF treatment to distinct changes in intracellular metabolic activity as part of an induced common killing mechanism. To further explore the role of metabolism in AF-induced cellular death, the effect of AF treatment on the intracellular metabolome of C. albicans was measured. To do so, a platform for metabolite detection and relative quantification from Metabolon Inc. (Durham, USA) (Evans et al., 2009) was utilized. Exponentially growing C. albicans cells were treated with AFs and samples collected for metabolomic analysis after 1.5 hours of treatment, a time point when it was expected that at least 90% of cells contributing to the metabolite pool would be irreversibly committed to the death pathway (FIGS. 7A-7D).
C. albicans cells were lysed and assayed by Metabolon Inc. (Durham, USA) as previously described (Shakoury-Elizeh et al., 2010). ATP and AMP were extracted as previously described (Walther et al., 2010) and analyzed by HPLC. This procedure is more fully described elsewhere herein.
C. albicans cells were incubated in 100 ml of SDC in 250 ml flasks at 37° C. and 300 rpm. Cells were exposed to AFs at an OD600 of 0.2, and cellular pellets from 100 ml of media were collected after 1.5 h of treatment. Cells were lysed and assayed by Metabolon Inc. (Durham, USA) as previously described (Evans et al., 2009; Shakoury-Elizeh et al., 2010).

S. cerevisiae = test: ROS formation by HPF fluorescence (flow cytometry); conditions: wildtype S. cerevisiae, SDC, after 1.5 hours of treatment
Procedure: as §1, §2

C. albicans [3] = test: TUNEL assay of DNA strand breaks (flow cytometry); conditions: after 2 hours of treatment
Procedure: The terminal deoxynucleotidyl transferase dUTP nick-end labeling (TUNEL) assay was used to quantify the relative abundance of DSBs in C. albicans cells treated with AFs and H2O2. The TUNEL reagent fluorescently labels both double- and single-strand DNA breaks (Ribeiro et al., 2006).
DNA strand breaks were fluorescently labeled with TUNEL reagent from the “In Situ Cell Death Detection Kit”, Roche (Mannheim, Germany). After 2 hours of treatment 5 ml of OD 0.2 cells were fixed with 3.7% formaldehyde for 30 min at room temperature, and then washed with digestion buffer consisting of 10 mM Mes pH 6.5 and 1 M sorbitol. Cell were digested for 45 min at 30° C. with 2 U of Yeast Lytic Enzyme, MP Biomedicals, (Irvine, Calif.) in 50 μl of digestion buffer. Cells were then washed in PBS with 1 M sorbitol and resuspended in permeabilization solution consisting of 0.1% Triton X-100 and 0.1% sodium citrate and 1 M sorbitol for 10 min at room temperature. Cell were again washed in PBS with 1 M sorbitol and labeled for 60 min with 10 μl of TUNEL reaction mixture. Cells were then again washed in PBS with 1 M sorbitol and resuspended in sheath fluid. Mean relative florescence was measured by flow cytometry on the FACSCalibur (Becton-Dickinson).

[4] = system: S. cerevisiae wildtype and deletion strains; conditions: S. cerevisiae, 3 hours of drug exposure

| SMILES | HPF fluorescence (formation of ROS) (C. albicans [1]) | intracellular sugars (fructose, mannose, trehalose) abundance vs control (C. albicans [2]; 1.5 hours of treatment) | fermentative waste products (2,3-butanediol and glycerol) (C. albicans [2]; 1.5 hours of treatment, vs untreated) | metabolic changes compared with those induced by AMB, MCZ and CIC (C. albicans [2]; CAS 0.5 μg/ml, 1.5 hours) | HPF fluorescence (formation of ROS) (S. cerevisiae) | TUNEL relative fluorescence (DNA breaks) (C. albicans [3]) | susceptibility of rad50 and rad52 knockouts vs wildtype [4] |
| --- | --- | --- | --- | --- | --- | --- | --- |
| CC[C@H](C)C[C@H](C)CCCCCCCCC(=O)N[C@H]1C[C@@H](O)[C@@H](NCCN)NC(=O)[C@@H]2[C@@H](O)CCN2C(=O)[C@H]([C@H](O)CCN)NC(=O)[C@H]([C@H](O)[C@@H](O)c2ccc(O)cc2)NC(=O)[C@@H]2C[C@@H](O)CN2C(=O)[C@H]([C@@H](C)O)NC1=O [caspofungin] | elevated ROS levels | elevation of sugars | reduction in fermentative byproducts | similar |  |  |  |
| OO [H2O2] | dramatic induction of HPF fluorescence |  |  |  | dramatic induction of HPF fluorescence | elevated relative fluorescence | considerably more susceptible |
